The structures appear in SMILES notation.

The first test deals with Lox-IMVI melanoma cell line. The experiment in a line: Lox-IMVI anti-proliferative assay (growth inhibition, Cell Titer-Glo). The format is cell-based, human. As to conditions: Homo sapiens; IC50 activity level in the cell-based Lox-IMVI anti-proliferative assay; read-out: Activity. A digest of the protocol: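 RPMI/10% FBS; cmpd 0.5 nM–10 μM, 3-fold ×10, duplicate, 0.2% DMSO final; 72 h, 37 °C, 5% CO2. ATP-luminescence readout at t0 and 72 h. IC50 = 50% of DMSO control, 4-parameter logistic fit.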
As to `CC(C)Nc1ncc2nc(Nc3c(F)cc(Cl)cc3F)n([C@H]3CC[C@@H](C(N)=O)CC3)c2n1` [Example 124, (1s,4s)-4-(8-(4-chloro-2,6-difluorophenylamino)-2-(isopropylamino)-9H-purin-9-yl)cyclohexanecarboxamide], the IC50 is > 1 µM.
Consider `NC(=O)[C@H]1CC[C@@H](n2c(Nc3c(F)cc(Cl)cc3F)nc3cnc(NC4CCS(=O)(=O)CC4)nc32)CC1` [Example 156, (1s,4s)-4-(8-((4-chloro-2,6-difluorophenyl)amino)-2-((1,1-dioxidotetrahydro-2H-thiopyran-4-yl)amino)-9H-purin-9-yl)cyclohexane-1-carboxamide], for which the IC50 is > 1 µM.
Same read-out and setting: for `CS(=O)(=O)N1CCC(Nc2ncc3nc(Nc4ccc(Cl)cc4Cl)n([C@H]4CC[C@@H](C(N)=O)CC4)c3n2)CC1` [Example 299, (1s,4s)-4-(8-(2,4-dichlorophenylamino)-2-(1-(methylsulfonyl)piperidin-4-ylamino)-9H-purin-9-yl)cyclohexanecarboxamide] the value was > 1 µM; for `NC(=O)[C@H]1CC[C@@H](n2c(Nc3c(Cl)cccc3Cl)nc3cnc(N[C@H]4CC[C@H](O)C4)nc32)CC1` [Example 327, (1R,4s)-4-(8-(2,6-dichlorophenylamino)-2-((1S,3S)-3-hydroxycyclopentylamino)-9H-purin-9-yl)cyclohexanecarboxamide], 0.5 to 1 µM.
Same read-out and setting: for `NC(=O)[C@H]1CC[C@@H](n2c(Nc3c(F)cccc3Cl)nc3cnc(N[C@H]4CC[C@H](O)C4)nc32)CC1` [Example 325, (1R,4s)-4-(8-(2-chloro-6-fluorophenylamino)-2-((1S,3S)-3-hydroxycyclopentylamino)-9H-purin-9-yl)cyclohexanecarboxamide] the value was > 1 µM.
On the same count and under the same terms, for `NC(=O)[C@H]1CC[C@@H](n2c(Nc3cc(F)c(Cl)cc3F)nc3cnc(N[C@@H]4CCC[C@H]4O)nc32)CC1` [Example 265, (1S,4s)-4-(8-(4-chloro-2,5-difluorophenylamino)-2-((1R,2R)-2-hydroxycyclopentylamino)-9H-purin-9-yl)cyclohexanecarboxamide] the value was > 1 µM; for `C[C@@H]1CC[C@@H](Nc2ncc3nc(Nc4c(F)cccc4F)n([C@H]4CC[C@@H](C(N)=O)CC4)c3n2)C[C@H]1O` [Example 343, (1S,4s)-4-(8-(2,6-difluorophenylamino)-2-((1R,3R,4R)-3-hydroxy-4-methylcyclohexylamino)-9H-purin-9-yl)cyclohexanecarboxamide], > 1 µM.

Still in this test, the particulars now being: Homo sapiens; Lox-IMVI anti-proliferative assay, IC50 activity level; read-out: Activity.
With `NC(=O)[C@H]1CC[C@@H](n2c(Nc3c(F)cc(Cl)cc3Cl)nc3cnc(NCC(F)(F)CO)nc32)CC1` [Example 451, (1s,4s)-4-(8-(2,4-dichloro-6-fluorophenylamino)-2-(2,2-difluoro-3-hydroxypropylamino)-9H-purin-9-yl)cyclohexanecarboxamide], the IC50 is > 1 µM.
Still for that read-out and setting: for `C[C@H]1COCC[C@@H]1Nc1ncc2nc(Nc3c(F)cc(Cl)cc3F)n([C@H]3CC[C@@H](C(N)=O)CC3)c2n1` [Example 507, (1R,4s)-4-(8-(4-chloro-2,6-difluorophenylamino)-2-((3R,4S)-3-methyltetrahydro-2H-pyran-4-ylamino)-9H-purin-9-yl)cyclohexanecarboxamide] the value was > 1 µM.
Take `NC(=O)[C@H]1CC[C@@H](n2c(Nc3c(Cl)cc(F)cc3Cl)nc3cnc(N[C@@H]4CCCC[C@H]4O)nc32)CC1` [Example 469, (1S,4s)-4-(8-(2,6-dichloro-4-fluorophenylamino)-2-((1R,2R)-2-hydroxycyclohexylamino)-9H-purin-9-yl)cyclohexanecarboxamide]: the IC50 was > 1 µM.
The same measure, in the same setting: then `NC(=O)[C@H]1CC[C@@H](n2c(Nc3c(Cl)cc(OC(F)(F)F)cc3Cl)nc3cnc(N[C@@H]4CCC[C@H](O)C4)nc32)CC1` [Example 595, (1S,4s)-4-(8-(2,6-dichloro-4-(trifluoromethoxy)phenylamino)-2-((1R,3S)-3-hydroxycyclohexylamino)-9H-purin-9-yl)cyclohexanecarboxamide], with > 1 µM; and `C[C@]1(O)CCC[C@@H](Nc2ncc3nc(Nc4ccc(F)cc4Cl)n([C@H]4CC[C@@H](C(N)=O)CC4)c3n2)C1` [Example 429, (1S,4s)-4-(8-(2-chloro-4-fluorophenylamino)-2-((1R,3S)-3-hydroxy-3-methylcyclohexylamino)-9H-purin-9-yl)cyclohexanecarboxamide], with > 1 µM; and `C[C@]1(C(N)=O)CC[C@@H](n2c(Nc3c(Cl)cc(C(F)(F)F)cc3Cl)nc3cnc(NC4CC(F)(F)C4)nc32)CC1` [Example 584, (1s,4s)-4-(8-(2,6-dichloro-4-(trifluoromethyl)phenylamino)-2-(3,3-difluorocyclobutylamino)-9H-purin-9-yl)-1-methylcyclohexanecarboxamide], with > 1 µM.
On the same count and under the same terms, then `NC(=O)[C@H]1CC[C@@H](n2c(Nc3c(Cl)cc(F)cc3Cl)nc3cnc(N[C@@H]4CCC(F)(F)C4)nc32)CC1` [Example 586, (1S,4s)-4-(8-(2,6-dichloro-4-fluorophenylamino)-2-((R)-3,3-difluorocyclopentylamino)-9H-purin-9-yl)cyclohexanecarboxamide], with < 0.25 µM; and `C[C@]1(C(N)=O)CC[C@H](n2c(Nc3c(Cl)cc(C#N)cc3Cl)nc3cnc(NC4CCC(F)(F)CC4)nc32)CC1` [Example 479, (1r,4r)-4-(8-(2,6-dichloro-4-cyanophenylamino)-2-(4,4-difluorocyclohexylamino)-9H-purin-9-yl)-1-methylcyclohexanecarboxamide], with > 1 µM.
Still for that read-out and setting: for `C[C@@H]1COCC[C@H]1Nc1ncc2nc(Nc3c(Cl)cc(Cl)cc3Cl)n([C@H]3CC[C@@H](C(N)=O)CC3)c2n1` [Example 499, (1S,4s)-4-(2-((3S,4R)-3-methyltetrahydro-2H-pyran-4-ylamino)-8-(2,4,6-trichlorophenylamino)-9H-purin-9-yl)cyclohexanecarboxamide] the value was < 0.25 µM; for `CC(CN1CCOCC1)Nc1ncc2nc(Nc3c(Cl)cc(Cl)cc3Cl)n([C@H]3CC[C@@H](C(N)=O)CC3)c2n1` (some centres unmarked) [Example 531, (1s,4s)-4-(2-(1-morpholinopropan-2-ylamino)-8-(2,4,6-trichlorophenylamino)-9H-purin-9-yl)cyclohexanecarboxamide], > 1 µM.

Still in this test, the particulars now being: Homo sapiens; Lox-IMVI melanoma cell line, anti-proliferative assay; read-out: Activity (IC50 activity level).
Regarding `N#Cc1ccc(Nc2nc3cnc(NC4CCCC4)nc3n2[C@H]2CC[C@@H](C(N)=O)CC2)c(Cl)c1Cl` [Example 693, (1s,4s)-4-(2-(cyclopentylamino)-8-(2,3-dichloro-4-cyanophenylamino)-9H-purin-9-yl)cyclohexanecarboxamide], the IC50 is > 1 µM.
Still for that read-out and setting: for `N#Cc1cc(F)c(Nc2nc3cnc(N[C@@H]4CCC[C@@H](O)C4)nc3n2[C@H]2CC[C@@H](C(N)=O)CC2)c(Cl)c1` [Example 685, (1S,4s)-4-(8-(2-chloro-4-cyano-6-fluorophenylamino)-2-((1R,3R)-3-hydroxycyclohexylamino)-9H-purin-9-yl)cyclohexanecarboxamide] the value was 0.5 to 1 µM; for `CC1(C)COCC[C@H]1Nc1ncc2nc(Nc3c(Cl)cc(Cl)cc3Cl)n([C@H]3CC[C@@H](C(N)=O)CC3)c2n1` [Example 766, (1S,4s)-4-(2-((R)-3,3-dimethyltetrahydro-2H-pyran-4-ylamino)-8-(2,4,6-trichlorophenylamino)-9H-purin-9-yl)cyclohexanecarboxamide], 0.5 to 1 µM.

The record behind these values is patent US11590139B2, “Substituted aminopurine compounds, compositions thereof, and methods of treatment therewith” (Signal Pharmaceuticals, LLC, priority 2014, dated 2023).
